Measured values from patent US8556817B2, “Non-invasive methods for determining the cardiovascular status of an individual” (priority 2005, dated 2013).
Marks after values point to notes of the source that are not given here.

Assays:
[1] = Carotid artery wall layer thickness by non-invasive high-frequency ultrasound, postmenopausal estrogen users vs age-matched nonusers; format: in vivo, women
Description: Any artery within the focus depth of the selected measuring equipment that can give information of the separate thicknesses of the artery intima layer and optionally the artery media layer may be used. In one embodiment, the thickness of the artery intima layer and optionally the artery media layer is measured in a superficial artery. Examples of superficial arteries include, but are not limited to, carotid, femoral, radialis, cubital, temporal, popliteal, or dorsalis pedis arteries. Depending on the artery which is selected for measurement, one skilled in the art will appreciate the various non-invasive locations on the individual in which the artery layer thickness may be measured. In one embodiment, the artery is a carotid artery and is examined in front of the sternocleidomastoid muscle, with the individual in the sitting position.
Before beginning the ultrasound imaging, individuals rest quietly for at least 15 minutes. Carotid total wall thickness and the thickness of the individual artery layers are assessed noninvasively using high-resolution ultrasonographic equipment (Osteoson® Minhorst GmbH, Meudt, Germany), fitted with a broad-banded probe with 25 MHz center frequency. The method is validated for the estimation of total artery wall thickness and media layer thickness in non-atherosclerotic superficial arteries in pigs. Briefly, the scan converter enables the image to be frozen at a selected scan-time (2 sec) and the unit permits two-dimensional data acquisition, presenting the results as scans A and B. About 128 lines of echo data are detected as an A-echo signal, sampled by an eight-bit analog-to-digital converter, converted by scanning to a rectangular format and viewed as B-mode images on a 32-colour scale monitor. Image resolution as defined by the product manual is approximately 0.07 mm axially along the ultrasonographic beam and the depth of focus is in the range of 13.5 to 14.5 mm in front of the tip of the probe. The system recognizes objects of about 0.015 mm in size, and the software-driven cursors permit a minimal digital display of 0.02 mm.
The left common carotid artery (LCCA) is examined at the point of the strongest pulse, in front of the sternocleidomastoid muscle, with the individuals sitting in an upright position and looking straight ahead. The three-layer image show the pulsating artery near wall and the artery lumen. Ten B scans (point estimates) are carried out and measurements of the thickness of the whole arterial wall and its layers are performed off-line. Means of the ten measurements are calculated and used in the analysis. The total thickness of the carotid wall is measured from the leading edge of the adventitia to the far edge of the intima. Measurements of the adventitia and intima are made using only the brightest echoes from leading edge to far edge, and the thickness of the media layer is measured as the distance between the two brightest echoes. The coefficient of variation (CV %), calculated from double estimates (based on the mean of 5 measurements each) in 20 subjects, is about 2.4% for total carotid wall thickness, about 4.2% for media thickness and about 8% for intima thickness. The values for artery wall layer given in this study are mean values based on 10 or more measurements. All ultrasonographic assessments are performed by the same investigator, who is blinded to the clinical data of the study subjects.

[2] = Femoral artery wall layer thickness by non-invasive high-frequency ultrasound, postmenopausal estrogen users vs age-matched nonusers; format: in vivo, women
[3] = estrogen users vs age-matched nonusers
[4] = estrogen users vs age-matched nonusers, pair-wise
[5] = postmenopausal estrogen users (n = 17), mean ± SD

## Estrogen
[1]; [3]
  Intima thickness, % difference: −25%
  Intima/Media ratio, % difference: −54%
  Media thickness, % difference: +74%
  Thickness of Intima + Media, % difference: +43%
  Total wall thickness, % difference: +35%
[1]; [4]
  Intima thickness, Mean difference ± SD: −0.033 ± 0.04 mm
  Intima/Media ratio, Mean difference ± SD: −0.25 ± 0.15
  Media thickness, Mean difference ± SD: 0.26 ± 0.22 mm
  Thickness of Intima + Media, Mean difference ± SD: 0.22 ± 0.23 mm
  Total wall thickness, Mean difference ± SD: 0.23 ± 0.23 mm
[1]; [5]
  Intima thickness: 0.12 ± 0.02 mm
  Intima/Media ratio: 0.21 ± 0.0629^a
  Media thickness: 0.61 ± 0.19 mm
  Thickness of Intima + Media: 0.73 ± 0.19 mm
  Total wall thickness: 0.84 ± 0.19 mm
[2]; [3]
  Intima thickness, % difference: −23%
  Intima/Media ratio, % difference: −50%
  Media thickness, % difference: +51%
  Thickness of Intima + Media, % difference: +38%
  Total wall thickness, % difference: +25%
[2]; [4]
  Intima thickness, Mean difference ± SD: −0.030 ± 0.04 mm
  Intima/Media ratio, Mean difference ± SD: −0.14 ± 0.13
  Media thickness, Mean difference ± SD: 0.27 ± 0.30 mm
  Thickness of Intima + Media, Mean difference ± SD: 0.24 ± 0.33 mm
  Total wall thickness, Mean difference ± SD: 0.18 ± 0.40 mm
[2]; [5]
  Intima thickness: 0.095 ± 0.02 mm
  Intima/Media ratio: 0.14 ± 0.06^0.055
  Media thickness: 0.77 ± 0.29^a mm
  Thickness of Intima + Media: 0.87 ± 0.30^a mm
  Total wall thickness: 0.91 ± 0.37^b mm
